Reference: US9796741B2 (Achillion Pharmaceuticals, Inc., priority 2014, dated 2017)
Where two headings read alike, the source gives them in different places.

Target: Human factor D (Homo sapiens (Human), UniProt P00746)
Assay: Human Factor D Assay
Format: biochemical
How it was run: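 Serum-purified factor D (80 nM final) preincubated 5 min at room temperature with compound in 50 mM Tris, 1M NaCl, pH 7.5. Z-L-Lys-SBzl and DTNB added at 100 μM each; OD405 followed kinetically over 30 min. IC50 by non-linear regression of % inhibition.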

[1] = human factor D 80 nM, substrate Z-L-Lys-SBzl, DTNB

Chain of Human factor D (P00746 26-253): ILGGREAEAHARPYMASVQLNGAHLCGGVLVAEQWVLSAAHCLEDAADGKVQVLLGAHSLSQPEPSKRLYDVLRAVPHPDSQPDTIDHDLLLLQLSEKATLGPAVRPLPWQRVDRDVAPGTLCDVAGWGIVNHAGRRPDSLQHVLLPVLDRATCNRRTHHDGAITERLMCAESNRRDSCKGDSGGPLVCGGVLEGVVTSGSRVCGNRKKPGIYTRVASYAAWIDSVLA

SMILES | IC50 [1] | IC50
CC(=O)c1cn(CC(=O)N2C[C@H](F)C[C@H]2C(=O)Nc2ccccc2-c2nc3ccccc3s2)c2ccc(-c3ccnnc3)cc12 [Compound 34, (2S,4R)-1-(2-(3-acetyl-5-(pyridazin-4-yl)-1H-indol-1-yl)acetyl)-N-(2-(benzo[d]thiazol-2-yl)phenyl)-4-fluoropyrrolidine-2-carboxamide] | > 10000 nM | 
CC(=O)c1cn(CC(=O)N2C[C@H](F)C[C@H]2C(=O)Nc2cccc(Br)n2)c2ccc(-c3cnc(C#N)nc3)cc12 [Compound 82, (2S,4R)-1-(2-(3-acetyl-5-(2-cyanopyrimidin-5-yl)-1H-indol-1-yl)acetyl)-N-(6-bromopyridin-2-yl)-4-fluoropyrrolidine-2-carboxamide] | < 1000 nM | 
CC(=O)c1cn(CC(=O)N2C[C@H](F)C[C@H]2C(=O)Nc2ccccc2-n2nccc2C)c2ccc(-c3ccnnc3)cc12 [Compound 72, (2S,4R)-1-(2-(3-acetyl-5-(pyridazin-4-yl)-1H-indol-1-yl)acetyl)-4-fluoro-N-(2-(5-methyl-1H-pyrazol-1-yl)phenyl)pyrrolidine-2-carboxamide] | > 10000 nM | 
CC(=O)c1cn(CC(=O)N2C[C@H](F)C[C@H]2C(=O)Nc2noc3cc(C(F)(F)F)ccc23)c2ccc(-c3ccnnc3)cc12 [Compound 42, (2S,4R)-1-(2-(3-acetyl-5-(pyridazin-4-yl)-1H-indol-1-yl)acetyl)-4-fluoro-N-(6-(trifluoromethyl)benzo [d]isoxazol-3-yl)pyrrolidine-2-carboxamide] | > 10000 nM | 
CC(=O)c1cn(CC(=O)N2C[C@H](F)C[C@H]2C(=O)NCc2cccc(Cl)c2F)c2ccc(-c3cnc(C)nc3)cc12 [Compound 135, (2S,4R)-1-(2-(3-acetyl-5-(2-methylpyrimidin-5-yl)-1H-indol-1-yl)acetyl)-N-(3-chloro-2-fluorobenzyl)-4-fluoropyrrolidine-2-carboxamide] | < 1000 nM | 
NC(=O)c1nn(CC(=O)N2C[C@H](F)C[C@H]2C(=O)Nc2cccc(OC(F)(F)F)c2F)c2ccc(-c3cncnc3)cc12 [Compound 9, 1-(2-((2S,4R)-4-fluoro-2-(2-fluoro-3-(trifluoromethoxy)phenylcarbamoyl)pyrrolidin-1-yl)-2-oxoethyl)-5-(pyrimidin-5-yl)-1H-indazole-3-carboxamide] | < 1000 nM | 
CC(=O)c1cn(CC(=O)N2C[C@H](F)C[C@H]2C(=O)Nc2c[nH]nc2-c2ccc(Cl)cc2Cl)c2ccc(-c3ccnnc3)cc12 [Compound 156, (2S,4R)-1-(2-(3-acetyl-5-(pyridazin-4-yl)-1H-indol-1-yl)acetyl)-N-(3-(2,4-dichlorophenyl)-1H-pyrazol-4-yl)-4-fluoropyrrolidine-2-carboxamide] | > 10000 nM | 
NC(=O)c1nn(CC(=O)N2C[C@H](F)C[C@H]2C(=O)NC2CCCc3nc(-c4ccc(F)cc4)sc32)c2ccc(-c3ccnnc3)cc12 (stereo partly drawn) [Compound 107, 1-(2-((2S,4R)-4-fluoro-2-(2-(4-fluorophenyl)-4,5,6,7-tetrahydrobenzo[d]thiazol-7-ylcarbamoyl)pyrrolidin-1-yl)-2-oxoethyl)-5-(pyridazin-4-yl)-1H-indazole-3-carboxamide] | > 10000 nM | 
CC(=O)c1cn(CC(=O)N2C[C@H](F)C[C@H]2C(=O)Nc2cccc(-c3cc(F)c(F)cc3Cl)c2F)c2ccc(-c3cnc(C)nc3)cc12 [Compound 150, (2S,4R)-1-(2-(3-acetyl-5-(2-methylpyrimidin-5-yl)-1H-indol-1-yl)acetyl)-N-(2′-chloro-2,4′,5′-trifluorobiphenyl-3-yl)-4-fluoropyrrolidine-2-carboxamide] | < 1000 nM | 
CC(=O)c1cn(CC(=O)N2C[C@H](F)C[C@H]2C(=O)Nc2ccc3c(c2)OC(C)(C)C3)c2ccc(-c3ccnnc3)cc12 [Compound 75, (2S,4R)-1-(2-(3-acetyl-5-(pyridazin-4-yl)-1H-indol-1-yl)acetyl)-N-(2,2-dimethyl-2,3-dihydrobenzofuran-6-yl)-4-fluoropyrrolidine-2-carboxamide] | < 1000 nM | 
NC(=O)c1nn(CC(=O)N2C[C@H](F)C[C@H]2C(=O)Nc2cccc(-c3ccccc3Cl)c2F)c2cnc(-c3cncnc3)cc12 [Compound 19, 1-(2-((2S,4R)-2-(2′-chloro-2-fluorobiphenyl-3-ylcarbamoyl)-4-fluoropyrrolidin-1-yl)-2-oxoethyl)-5-(pyrimidin-5-yl)-1H-pyrazolo[3,4-c]pyridine-3-carboxamide] | < 1000 nM | 
CC(=O)c1cn(CC(=O)N2[C@@H]3C[C@@H]3C[C@H]2C(=O)Nc2cccc(-c3ccccc3Cl)c2F)c2ccc(-c3cncnc3)cc12 [Compound 15, (1R,3S,5R)-2-(2-(3-acetyl-5-(pyrimidin-5-yl)-1H-indol-1-yl)acetyl)-N-(2′-chloro-2-fluorobiphenyl-3-yl)-2-azabicyclo[3.1.0] hexane-3-carboxamide] | < 1000 nM | 
CC1(C)Cc2ccc(NC(=O)[C@@H]3C[C@@H](F)CN3C(=O)Cn3nc(C(N)=O)c4cc(-c5ccnnc5)ccc43)cc2O1 [Compound 76, 1-(2-((2S,4R)-2-(2,2-dimethyl-2,3-dihydrobenzofuran-6-ylcarbamoyl)-4-fluoropyrrolidin-1-yl)-2-oxoethyl)-5-(pyridazin-4-yl)-1H-indazole-3-carboxamide] | < 1000 nM | 
CC(=O)c1cn(CC(=O)N2C[C@H](F)C[C@H]2C(=O)Nc2cccc(-c3ccccc3Cl)c2F)c2ccc(N3CCN(C(C)=O)CC3)cc12 [Compound 16, (2S,4R)-1-(2-(3-acetyl-5-(4-acetylpiperazin-1-yl)-1H-indol-1-yl)acetyl)-N-(2′-chloro-2-fluorobiphenyl-3-yl)-4-fluoropyrrolidine-2-carboxamide] | < 1000 nM | 
NC(=O)c1nn(CC(=O)N2C[C@H](F)C[C@H]2C(=O)NCc2ccncc2)c2ccc(-c3ccnnc3)cc12 [Compound 157, 1-(2-((2S,4R)-4-fluoro-2-(pyridin-4-ylmethylcarbamoyl)pyrrolidin-1-yl)-2-oxoethyl)-5-(pyridazin-4-yl)-1H-indazole-3-carboxamide] | > 10000 nM | 
CC(=O)c1cn(CC(=O)N2C[C@H](F)C[C@H]2C(=O)Nc2cccc(Br)n2)c2ccc(-c3cnc(F)nc3)cc12 [Compound 83, (2S,4R)-1-(2-(3-acetyl-5-(2-fluoropyrimidin-5-yl)-1H-indol-1-yl)acetyl)-N-(6-bromopyridin-2-yl)-4-fluoropyrrolidine-2-carboxamide] | < 1000 nM | 
NC(=O)c1nn(CC(=O)N2C[C@H](F)C[C@H]2C(=O)Nc2nc(-c3cccc(Cl)c3)ns2)c2ccc(-c3ccnnc3)cc12 [Compound 146, 1-(2-((2S,4R)-2-(3-(3-chlorophenyl)-1,2,4-thiadiazol-5-ylcarbamoyl)-4-fluoropyrrolidin-l-yl)-2-oxoethyl)-5-(pyridazin-4-yl)-1H-indazole-3-carboxamide] | > 10000 nM | 
CC(=O)c1cn(CC(=O)N2C[C@H](F)C[C@H]2C(=O)NCc2cccc(Cl)c2)c2ccc(-c3ccnnc3)cc12 [Compound 44, (2S,4R)-1-(2-(3-acetyl-5-(pyridazin-4-yl)-1H-indol-1-yl)acetyl)-N-(3-chlorobenzyl)-4-fluoropyrrolidine-2-carboxamide] | < 1000 nM | 
Cc1ncc(-c2ccc3c(c2)c(C(N)=O)nn3CC(=O)N2C[C@H](F)C[C@H]2C(=O)Nc2cccc(Br)n2)cn1 [Compound 101, 1-(2-((2S,4R)-2-(6-bromopyridin-2-ylcarbamoyl)-4-fluoropyrrolidin-1-yl)-2-oxoethyl)-5-(2-methylpyrimidin-5-yl)-1H-indazole-3-carboxamide] | < 1000 nM | 
NC(=O)c1nn(CC(=O)N2C[C@H](F)C[C@H]2C(=O)NCc2nc3ccccc3s2)c2ccc(-c3ccnnc3)cc12 [Compound 52, 1-(2-((2S,4R)-2-(benzo[d]thiazol-2-ylmethylcarbamoyl)-4-fluoropyrrolidin-1-yl)-2-oxoethyl)-5-(pyridazin-4-yl)-1H-indazole-3-carboxamide] | > 10000 nM | 
NC(=O)c1nn(CC(=O)N2C[C@H](F)C[C@H]2C(=O)NCc2cccnc2)c2ccc(-c3ccnnc3)cc12 [Compound 39, 1-(2-((2S,4R)-4-fluoro-2-(pyridin-3-ylmethylcarbamoyl)pyrrolidin-1-yl)-2-oxoethyl)-5-(pyridazin-4-yl)-1H-indazole-3-carboxamide] |  | 1000 to 10000 nM
CC(=O)c1cn(CC(=O)N2C[C@H](F)C[C@H]2C(=O)Nc2cccc(-c3ccccc3Cl)c2F)c2ccc(N3CCN(c4ncccn4)CC3)cc12 [Compound 31, (2S,4R)-1-(2-(3-acetyl-5-(4-(pyrimidin-2-yl)piperazin-1-yl)-1H-indol-1-yl)acetyl)-N-(2′-chloro-2-fluorobiphenyl-3-yl)-4-fluoropyrrolidine-2-carboxamide] | < 1000 nM | 
CC(=O)c1nn(CC(=O)N2C[C@H](F)C[C@H]2C(=O)Nc2cccc(-c3ccccc3Cl)c2F)c2ccc(-c3cnc(C)nc3)cc12 [Compound 163, (2S,4R)-1-(2-(3-acetyl-5-(2-methylpyrimidin-5-yl)-1H-indazol-1-yl)acetyl)-N-(2′-chloro-2-fluorobiphenyl-3-yl)-4-fluoropyrrolidine-2-carboxamide] | < 1000 nM | 
NC(=O)c1nn(CC(=O)N2C[C@H](F)C[C@H]2C(=O)NCc2cc(F)cc(Cl)c2)c2ccc(-c3ccnnc3)cc12 [Compound 62, 1-(2-((2S,4R)-2-(3-chloro-5-fluorobenzylcarbamoyl)-4-fluoropyrrolidin-1-yl)-2-oxoethyl)-5-(pyridazin-4-yl)-1H-indazole-3-carboxamide] | < 1000 nM | 
NC(=O)c1nn(CC(=O)N2C[C@H](F)C[C@H]2C(=O)Nc2ccc(F)c(-c3nnc4n3CCCCC4)c2)c2ccc(-c3ccnnc3)cc12 [Compound 91, 1-(2-((2S,4R)-4-fluoro-2-(4-fluoro-3-(6,7,8,9-tetrahydro-5H-[1,2,4]triazolo[4,3-a]azepin-3-yl)phenylcarbamoyl)pyrrolidin-1-yl)-2-oxoethyl)-5-(pyridazin-4-yl)-1H-indazole-3-carboxamide] | > 10000 nM | 
NC(=O)c1nn(CC(=O)N2C[C@H](F)C[C@H]2C(=O)Nc2ccc3ccccc3c2)c2ccc(-c3ccnnc3)cc12 [Compound 131, 1-(2-((2S,4R)-4-fluoro-2-(naphthalen-2-ylcarbamoyl)pyrrolidin-1-yl)-2-oxoethyl)-5-(pyridazin-4-yl)-1H-indazole-3-carboxamide] | > 10000 nM | 
